Laboratory results reported in article PMC11304990, “Identification of mitochondrial ATP synthase as the cellular target of Ru-polypyridyl-β-carboline complexes by affinity-based protein profiling” (National Science Review, 2024).
Blank lines part the entries; values can stand above or below the compound they belong to.

How the values were obtained:
[1] = target: ATPase (mitochondrial ATP synthase); assay: Inhibition of the enzymatic activity of ATPase in vitro; assay type: biochemical; conditions: read-out: Inhibition constant (Ki)
Method: (§1) Figure 1. Validation of ATP5F1 as the molecular target of Ru5. (A) Proteins pulled down by streptavidin from A549 cells treated with Ru5a followed by PAL. The cells were treated with Ru5a (50 μM) for 12 h and irradiated with UV light for 20 min. (B) The top five peptides enriched by Ru5a-mediated PAL were identified with the assistance of SILAC-based chemoproteomic studies. H1F0: H1 histone family member 0; HIST4H4: histone cluster 4 H4; HIST3H2BB: histone cluster 3 H2B family member b; ATP5F1E: ATP synthase F1 subunit epsilon; HIST1H2AJ: histone cluster 1 H2A family member J. (C) Pull-down western blotting analysis of ATPase in A549 cells treated with Ru5a. (D) Cellular Ru content in cells treated with Ru5/Ru5a (20 μM, 12 h) measured by ICP-MS. (E) Impact of Ru5/Ru5a (10 μM) on the thermal stability of ATP5F1 measured by CETSA. (F) Impact on the anticancer activities of Ru5/Ru5a against wild type and ATPase knocking down (by siRNA) A549 cells. The relative cellular viability was calculated using the cells without drug treatment in each group as the control group. (G) Inhibition of Ru5/Ru5a on the enzymatic activity of ATPase. (-)-blebbistatin was used as the positive control. (H) Molecular docking of Ru5 with ATPase (PDB: 3ZIA). The red dashes indicate the hydrogen bonds formed between Ru5 and the amino acid residues (SER38 and GLN39). The yellow dashes indicate the hydrophobic interaction between Ru5 and the amino acid residues (ASN15 and GLN19). Data are presented as means ± SD from three independent experiments. TEXT PRINTED IN THE PICTURE: (B) Ru5a: Log2 (fold change) (Ru5a/DMSO): 1.43 (Protein name: H1F0); Log2 (fold change) (Ru5a/DMSO): 1.23 (Protein name: HIST4H4); Log2 (fold change) (Ru5a/DMSO): 1.22 (Protein name: HIST3H2BB); Log2 (fold change) (Ru5a/DMSO): 1.21 (Protein name: ATP5F1E); Log2 (fold change) (Ru5a/DMSO): 1.12 (Protein name: HIST1H2AJ) DOUBTS OF THE COPYIST ABOUT THIS PICTURE: Panel B: the table rows are proteins enriched by Ru5a, not separate substances. […]

[2] = tested on: cervical carcinoma (HeLa); assay: MTT antiproliferative assay, HeLa; assay type: cell-based, human; conditions: 72 h
Excerpt: (§2) Ru3–Ru9 also show a certain selectivity for cancer cells over normal cells, and Ru2, Ru3, Ru5 and Ru9 show higher selectivity index (SI) values than the other complexes.
(§3) PA-BPP was then used to confirm the molecular targets of Ru5 by modifying it with a ‘minimalist’ biorthogonal handle-containing photo-cross-linker. Through our structure–activity relationship analysis and comparison with other ruthenium complexes utilizing phen as the auxiliary ligands with similar coordination structures (using cisplatin as a control), we propose that the β-carboline ligands play an important role in antiproliferative activity. To maintain the binding characteristics of the β-carboline moiety with the targeted biomolecules, we linked the photo-cross-linker to one of the auxiliary ligands of Ru5.

prostate cancer (PC3) = assay: MTT antiproliferative assay, PC3; assay type: cell-based, human; conditions: 72 h
Excerpt: as §2, §3

[3] = tested on: cisplatin-resistant A549R; assay: MTT antiproliferative assay, A549R; assay type: cell-based, human; conditions: 72 h
Excerpt: as §2, §3

[4] = tested on: human lung fibroblast-like (HLF) cells; assay: MTT antiproliferative assay, HLF; assay type: cell-based; conditions: 72 h
Excerpt: as §2, §3

[5] = tested on: triple negative breast cancer (MDA-MB-231); assay: MTT antiproliferative assay, MDA-MB-231; assay type: cell-based, human; conditions: 72 h
Excerpt: as §2, §3

malignant glioma (U87) = assay: MTT antiproliferative assay, U87; assay type: cell-based, human; conditions: 72 h
Excerpt: as §2, §3

[6] = tested on: lung adenocarcinoma (A549); assay: MTT antiproliferative assay, A549; assay type: cell-based, human; conditions: for IC50: 72 h; for SI (selectivity index): SI = (IC50 for HLF)/(IC50 for A549)
Excerpt: as §2, §3

A549 xenograft = A549 xenograft nude mice model; assay type: in vivo; conditions: 5 mg kg−1, intratumoral injection every 7 days, 14 days, compared with the control groups
Method: Lastly, the in vivo anticancer activity of Ru5 was assessed via a A549 xenograft nude mice model (Fig. 5A). Mice were treated with PBS, cisplatin (5 mg kg^−1) or Ru5 (5 mg kg^−1) for 14 days, during which body weights and tumor volumes were monitored.
Figure 5. […] (A) Schematic illustration of in vivo therapeutic protocol. (B) Graphs of tumor volumes of nude mice after treatment with Ru5 (5 mg kg^−1), cisplatin (5 mg kg^−1) and PBS. The intratumoral injections were performed every 7 days. Data are presented as means ± SD, n = 5. (C) Immunohistochemical analysis of hematoxylin-eosin (H&E) staining in tumor sections from mice with different treatments. Scale bar: 50 μm. (D) Tumors separated from nude mice. (E) The average body weight of the mice in each group during the treatment process. Data are presented as means ± SD, n = 5. (F) H&E staining of the main organs from mice with different treatments. Scale bar: 100 μm.

[7] = Aqueous solubility by concentration-absorbance linearity; assay type: physicochemical; conditions: PBS with 1% DMSO
Excerpt: Subsequently, the lipophilicity and aqueous solubility of Ru1–Ru9 were investigated.

ATP5F1 = assay: Cellular thermal shift assay (CETSA); assay type: cell-based; conditions: 10 μM
Method: as §1, with “GLN39).” for “GLN39). The yellow dashes indicate the hydrophobic interaction between Ru5 and the amino acid residues (ASN15 and GLN19). Data are presented as means ± SD from three independent experiments. TEXT PRINTED IN THE PICTURE: (B) Ru5a: Log2 (fold change) (Ru5a/DMSO): 1.43 (Protein name: H1F0); Log2 (fold change) (Ru5a/DMSO): 1.23 (Protein name: HIST4H4); Log2 (fold change) (Ru5a/DMSO): 1.22 (Protein name: HIST3H2BB); Log2 (fold change) (Ru5a/DMSO): 1.21 (Protein name: ATP5F1E); Log2 (fold change) (Ru5a/DMSO): 1.12 (Protein name: HIST1H2AJ) DOUBTS OF THE COPYIST ABOUT THIS PICTURE: Panel B: the table rows are proteins enriched by Ru5a, not separate substances.”

mitochondria = assay: Subcellular Ru content by ICP-MS; assay type: cell-based; conditions: 20 μM, 12 h
Method: as §1, with “GLN39).” for “GLN39). The yellow dashes indicate the hydrophobic interaction between Ru5 and the amino acid residues (ASN15 and GLN19). Data are presented as means ± SD from three independent experiments. TEXT PRINTED IN THE PICTURE: (B) Ru5a: Log2 (fold change) (Ru5a/DMSO): 1.43 (Protein name: H1F0); Log2 (fold change) (Ru5a/DMSO): 1.23 (Protein name: HIST4H4); Log2 (fold change) (Ru5a/DMSO): 1.22 (Protein name: HIST3H2BB); Log2 (fold change) (Ru5a/DMSO): 1.21 (Protein name: ATP5F1E); Log2 (fold change) (Ru5a/DMSO): 1.12 (Protein name: HIST1H2AJ) DOUBTS OF THE COPYIST ABOUT THIS PICTURE: Panel B: the table rows are proteins enriched by Ru5a, not separate substances.”

A549 cells = assay: Anticancer activity in wild type vs ATPase siRNA knockdown cells; assay type: cell-based, human; conditions: compared to wild-type cells
Method: as §1, with “GLN39).” for “GLN39). The yellow dashes indicate the hydrophobic interaction between Ru5 and the amino acid residues (ASN15 and GLN19). Data are presented as means ± SD from three independent experiments. TEXT PRINTED IN THE PICTURE: (B) Ru5a: Log2 (fold change) (Ru5a/DMSO): 1.43 (Protein name: H1F0); Log2 (fold change) (Ru5a/DMSO): 1.23 (Protein name: HIST4H4); Log2 (fold change) (Ru5a/DMSO): 1.22 (Protein name: HIST3H2BB); Log2 (fold change) (Ru5a/DMSO): 1.21 (Protein name: ATP5F1E); Log2 (fold change) (Ru5a/DMSO): 1.12 (Protein name: HIST1H2AJ) DOUBTS OF THE COPYIST ABOUT THIS PICTURE: Panel B: the table rows are proteins enriched by Ru5a, not separate substances.”

- Highest solubility [7]: lower than 40 μM
SMILES: F[P-](F)(F)(F)(F)F.F[P-](F)(F)(F)(F)F.[Ru+2].c1ccc(-c2ccnc3c2ccc2c(-c4ccccc4)ccnc23)cc1.c1ccc(-c2ccnc3c2ccc2c(-c4ccccc4)ccnc23)cc1.c1ccc2nc(-c3nccc4c3[nH]c3ccccc34)ccc2c1 [Ru3]
- SI (selectivity index) [6]: higher

- Subcellular location (cellular Ru content) (mitochondria): mainly located in mitochondria
- IC50 [2]: 3.8 ± 0.1 µM
- IC50 (prostate cancer (PC3)): 3.4 ± 0.6 µM
- IC50 [3]: 4.2 ± 0.6 µM
- IC50 [5]: 8.4 ± 0.6 µM
- IC50 (malignant glioma (U87)): 13.4 ± 0.4 µM
- IC50 [6]: 2.5 ± 0.4 µM
- Ki [1]: 8.1 ± 1.5 µM
SMILES: C#CCCC1(CCNC(=O)c2cc3cccnc3c3ncccc23)N=N1.F[P-](F)(F)(F)(F)F.F[P-](F)(F)(F)(F)F.[Ru+2].c1ccc2c(c1)[nH]c1c(-c3ncc[nH]3)nccc12.c1cnc2c(c1)ccc1cccnc12 [Ru5a]
- Thermal stability of ATP5F1 (ATP5F1): increased
- IC50 [4]: 23.2 ± 0.3 µM
- SI (selectivity index) [6]: 9.3
- Effect of siRNA-mediated knockdown of ATPase on anticancer effects (A549 cells): alleviates

- Highest solubility [7]: lower than 40 μM
SMILES: F[P-](F)(F)(F)(F)F.F[P-](F)(F)(F)(F)F.[Ru+2].c1ccc(-c2ccnc3c2ccc2c(-c4ccccc4)ccnc23)cc1.c1ccc(-c2ccnc3c2ccc2c(-c4ccccc4)ccnc23)cc1.c1ccc2c(c1)[nH]c1c(-c3ncc[nH]3)nccc12 [Ru6]

- Linear relationship between absorbance and concentration up to [7]: at least 100 μM
SMILES: F[P-](F)(F)(F)(F)F.F[P-](F)(F)(F)(F)F.[Ru+2].c1ccc2[nH]c(-c3nccc4c3[nH]c3ccccc34)nc2c1.c1cnc2c(c1)ccc1cccnc12.c1cnc2c(c1)ccc1cccnc12 [Ru8]

- Highest solubility [7]: lower than 40 μM
SMILES: F[P-](F)(F)(F)(F)F.F[P-](F)(F)(F)(F)F.[Ru+2].c1ccc(-c2ccnc3c2ccc2c(-c4ccccc4)ccnc23)cc1.c1ccc(-c2ccnc3c2ccc2c(-c4ccccc4)ccnc23)cc1.c1ccc2[nH]c(-c3nccc4c3[nH]c3ccccc34)nc2c1 [Ru9]
- SI (selectivity index) [6]: higher

The remaining lines, values behind:

SMILES: Cc1ccc2c(c1)C(=O)C1(O)CCN(c3ccccc3)C1=N2 (single isomer, unassigned; (-)) [(-)-blebbistatin, reference compound]
- Ki [1]: 3.3 ± 0.5 µM

SMILES: N.N.[Cl][Pt][Cl] [Cisplatin, reference compound]
- IC50 [2]: 10.3 ± 1.3 µM
- IC50 (prostate cancer (PC3)): 13.1 ± 2.7 µM
- IC50 [3]: 28.1 ± 4.2 µM
- IC50 [4]: 15.4 ± 1.1 µM
- IC50 [5]: 9 ± 0.2 µM
- IC50 (malignant glioma (U87)): 14.8 ± 1.2 µM
- IC50 [6]: 5.9 ± 1 µM
- SI (selectivity index) [6]: 2.6
- Tumor growth inhibitory rate (A549 xenograft): ~74.4%

SMILES: F[P-](F)(F)(F)(F)F.F[P-](F)(F)(F)(F)F.[Ru+2].c1ccc2nc(-c3nccc4c3[nH]c3ccccc34)ccc2c1.c1cnc2c(c1)ccc1cccnc12.c1cnc2c(c1)ccc1cccnc12 [Ru2]
- Linear relationship between absorbance and concentration up to [7]: at least 100 μM
- SI (selectivity index) [6]: higher
